According to patent US10703748B2, “Diazanaphthalen-3-yl carboxamides and preparation and use thereof” (Samumed, LLC, priority 2017, dated 2020):
Where two headings read alike, the source gives them in different places.

Legend:
[1] = tested on: Wnt-responsive Sp5-Luc reporter in SW480 colon carcinoma cells; test: Screening assay for Wnt activity (Sp5-Luc reporter gene assay); details: Homo sapiens; for EC50: SW480; for inhibition at 10 µM: SW480, read-out: percent inhibition at 10 μM
GSK3β kinase = GSK3β kinase (Homo sapiens, UniProt P49841); test: GSK3β kinase activity (Ser/Thr 09 peptide Z-lyte FRET assay); type: biochemical
IL-6 = IL-6 inhibition in LPS-stimulated human peripheral blood mononuclear cells (HTRF); details: Homo sapiens, PBMC; for EC50: 22 h; for inhibition at 10 µM: read-out: percentage in parentheses after EC50 >10
DYRK1A kinase = DYRK1A kinase (Homo sapiens, UniProt Q13627); test: DYRK1A kinase activity (Ser/Thr 18 peptide Z-lyte FRET assay); type: biochemical; details: recombinant DYRK1A, 30 μM ATP, one hour at room temperature;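 further: kinase activity read as coumarin/fluorescein emission ratio after development step, with unphosphorylated and phosphorylated peptide forms setting 0% and 100% controls, values from dose-response curves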
Procedure: Representative compounds were screened using the assay procedure for DYRK1A kinase activity as described below.
Each compound was dissolved in DMSO as a 10 mM stock and used to prepare compound source plates.
This is a non-radioactive assay using fluorescence resonance energy transfer (FRET) between coumarin and fluorescein to detect kinase activity which is represented as a ratio of coumarin emission/fluorescein emission.
The mixture was allowed to incubate with the representative compounds for one hour at room temperature. All reactions were performed in duplicate. Unphosphorylated (“0% Control”) and phosphorylated (“100% control”) forms of Ser/Thr 18 served as control reactions. Additionally, an 11-point dose-response curve of Staurosporine (1 uM top) was run to serve as a positive compound control.
After incubation, Development Reagent A was diluted in Development Buffer then added to the reaction and allowed to further incubate for one hour at room temperature.
Dose-response curves were generated and inhibitory concentration (IC50) values were calculated using non-linear regression curve fit in the Dotmatics' Studies Software (Bishops Stortford, UK).

[2] = tested on: α-smooth muscle actin (aSMA) positive LL29 cells; test: Inhibition of the fibrotic process: αSMA staining in TGF-β1 treated LL29 fibroblasts from IPF patients; details: Homo sapiens, Fibroblast; for EC50: 96 h; for inhibition at 10 µM: read-out: percentage in parentheses after EC50 >10
[3] = tested on: secreted cytokines TNFα, IL-6 and KC-GRO; test: Secreted cytokines in Lipopolysaccharide-stimulated BV-2 cells (Table 9 does not say which cytokine); type: cell-based, mouse; details: Mus musculus, BV-2, 5 h
[4] = tested on: SW480 colon carcinoma cells; test: Cell viability assay (CellTiter-Glo); details: Homo sapiens; for EC50: SW480, 96 h; for inhibition at 10 µM: SW480, read-out: percent inhibition at 10 μM
Procedure: Representative compounds were screened using the assay procedure to assess the effect on cell viability as described below.
SW480 colon carcinoma cells were transduced with a lentiviral vector expressing luciferase with a human Sp5 promoter consisting of a sequence of eight TCF/LEF binding sites. […] These stably transduced SW480 cells were expanded in cell culture and used for all further screening activities. Each compound was dissolved in DMSO as a 10 mM stock and used to prepare compound source plates.
For the Cell Viability Assays, the cells were plated at 2,000 cells/well in 384-well plates with a DMEM medium containing 1% fetal bovine serum, and 1% Penicillin-Streptomycin and incubated for four days hours at 37° C. and 5% CO2. Eight replicates of DMSO-treated cells served as controls and cells treated with compound were performed in duplicate.
After incubation, 10 μL of CellTiter-Glo (Promega) was added to each well allowed to incubate for approximately 12 minutes. This reagent “results in cell lysis and generation of a luminescent signal proportional to the amount of ATP present. The amount of ATP is directly proportional to the number of cells present in culture, in agreement with previous reports. The CellTiter-Glo Assay generates a “glow-type” luminescent signal, produced by the luciferase reaction (Promega.com)”.
Dose-response curves were generated and EC50 concentration values were calculated using non-linear regression curve fit in the GraphPad Prism (San Diego, Calif.) or Dotmatics' Studies Software (Bishops Stortford, UK).

[5] = recombinant kinase, 46 μM ATP, one hour at room temperature, read-out: EC50

Sequence of GSK3β kinase (P49841 whole entry): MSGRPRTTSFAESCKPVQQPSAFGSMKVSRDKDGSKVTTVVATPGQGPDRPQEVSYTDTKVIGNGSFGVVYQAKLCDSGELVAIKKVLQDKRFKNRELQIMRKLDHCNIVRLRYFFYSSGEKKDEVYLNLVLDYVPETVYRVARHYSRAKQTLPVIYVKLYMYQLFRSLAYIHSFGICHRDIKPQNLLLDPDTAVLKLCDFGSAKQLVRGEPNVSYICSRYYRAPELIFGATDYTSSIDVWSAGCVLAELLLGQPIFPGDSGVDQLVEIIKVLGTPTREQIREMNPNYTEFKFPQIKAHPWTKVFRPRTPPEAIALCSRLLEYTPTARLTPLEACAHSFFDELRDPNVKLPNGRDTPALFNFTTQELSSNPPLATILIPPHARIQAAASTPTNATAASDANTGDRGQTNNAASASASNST

Row | Compound | EC50 [1] | EC50 (GSK3β kinase; [5]) | EC50 (IL-6) | EC50 (DYRK1A kinase) | EC50 [2] | EC50 ([3]; read-out: EC50) | EC50 [4] | inhibition at 10 µM (IL-6) | inhibition at 10 µM [2] | inhibition at 10 µM [1] | inhibition at 10 µM [4] | EC50 (GSK3β kinase) | EC50 [3]
1 | CN1CCN(c2cc(C(=O)Nc3ncc4ccc(-c5cnn(C)c5N)cc4n3)ccn2)CC1 [Compound 1210, N-(7-(5-Amino-1-methyl-1H-pyrazol-4-yl)quinazolin-2-yl)-2-(4-methylpiperazin-1-yl)isonicotinamide] | 478 nM | > 10000 nM | 3610 nM | 4 nM | 1400 nM | 1100 nM | 695 nM | – | – | – | – | – | –
2 | Cn1ncc(-c2ccc3cnc(NC(=O)c4ccnc(N5CCOCC5)c4)nc3c2)c1CN1CCOCC1 [Compound 1220, N-(7-(1-Methyl-5-(morpholinomethyl)-1H-pyrazol-4-yl)quinazolin-2-yl)-2-morpholinoisonicotinamide] | 1820 nM | 5600 nM | > 10000 nM | 19 nM | > 10000 nM | 877 nM | 5300 nM | 0% | 5.5% | – | – | – | –
3 | CN(C)C1CCN(c2cc(C(=O)Nc3ncc4ccc(-c5cn(C)nn5)cc4n3)ccn2)CC1 [Compound 1282, 2-(4-(Dimethylamino)piperidin-1-yl)-N-(7-(1-methyl-1H-1,2,3-triazol-4-yl)quinazolin-2-yl)isonicotinamide] | 742 nM | 453 nM | > 10000 nM | 8 nM | 2540 nM | 1000 nM | 1340 nM | 42.4% | – | – | – | – | –
4 | CN1CCCN(c2cc(C(=O)Nc3ncc4ccc(-c5cn(C)nn5)cc4n3)ccn2)CC1 [Compound 1285, 2-(4-Methyl-1,4-diazepan-1-yl)-N-(7-(1-methyl-1H-1,2,3-triazol-4-yl)quinazolin-2-yl)isonicotinamide] | 1650 nM | 832 nM | > 10000 nM | 13 nM | > 10000 nM | 6800 nM | 3140 nM | 2.1% | 5.5% | – | – | – | –
5 | Cn1cnnc1-c1ccc2cnc(NC(=O)C3CCN(CCC(F)(F)F)CC3)nc2c1 [Compound 1297, N-(7-(4-Methyl-4H-1,2,4-triazol-3-yl)quinazolin-2-yl)-1-(3,3,3-trifluoropropyl)piperidine-4-carboxamide] | > 10000 nM | 38 nM | > 10000 nM | 57 nM | > 10000 nM | ≥ 10000 nM | > 10000 nM | 4.3% | 42.1% | 39.2% | 35.1% | – | –
6 | Cc1ncc(C(=O)Nc2ncc3ccc(-c4cnc(C)n4C)cc3n2)s1 [Compound 1353, N-(7-(1,2-Dimethyl-1H-imidazol-5-yl)quinazolin-2-yl)-2-methylthiazole-5-carboxamide] | 2180 nM | 1350 nM | > 10000 nM | 11 nM | > 10000 nM | 812 nM | 4480 nM | 4.1% | 42% | – | – | – | –
7 | Cn1cncc1-c1ccc2cnc(NC(=O)c3cccc(CN4CCCC4)c3)nc2c1 [Compound 1356, N-(7-(1-Methyl-1H-imidazol-5-yl)quinazolin-2-yl)-3-(pyrrolidin-1-ylmethyl)benzamide] | 2570 nM | 2780 nM | 8060 nM | 5 nM | 3600 nM | 1100 nM | 8600 nM | – | – | – | – | – | –
8 | Cn1cncc1-c1ccc2cnc(NC(=O)c3ccc4c(c3)CNC4)nc2c1 [Compound 1383, N-(7-(1-Methyl-1H-imidazol-5-yl)quinazolin-2-yl)isoindoline-5-carboxamide] | > 10000 nM | 453 nM | > 10000 nM | 2 nM | 3290 nM | 6800 nM | > 10000 nM | 3.1% | – | 15.9% | 26.1% | – | –
9 | Cc1ncc(-c2ccc3cnc(NC(=O)[C@H]4CC[C@H](CO)CC4)nc3c2)o1 [Compound 1447, trans-4-(Hydroxymethyl)-N-(7-(2-methyloxazol-5-yl)quinazolin-2-yl)cyclohexane-1-carboxamide] | 617 nM | 952 nM | > 10000 nM | 56 nM | > 10000 nM | 605 nM | > 10000 nM | 0% | 35.5% | – | 8.5% | – | –
10 | CN1CCC(Oc2cccc(C(=O)Nc3ncc4ccc(-c5cnco5)cc4n3)c2)CC1 [Compound 1497, 3-((1-Methylpiperidin-4-yl)oxy)-N-(7-(oxazol-5-yl)quinazolin-2-yl)benzamide] | > 10000 nM | > 10000 nM | > 10000 nM | 30 nM | 2430 nM | 334 nM | > 10000 nM | 4.8% | – | 41.7% | 23.7% | – | –
11 | O=C(Nc1ncc2ccc(-c3cncs3)cc2n1)[C@H]1CC[C@H](CN2CC(F)C2)CC1 [Compound 1519, trans-4-((3-fluoroazetidin-1-yl)methyl)-N-(7-(thiazol-5-yl)quinazolin-2-yl)cyclohexane-1-carboxamide] | 2280 nM | 772 nM | > 10000 nM | 11 nM | 2400 nM | 69 nM | > 10000 nM | 2.9% | – | – | 17.1% | – | –
12 | O=C(Nc1ncc2ccc(-c3cncs3)cc2n1)C1CCN(C2COC2)CC1 [Compound 1523, 1-(Oxetan-3-yl)-N-(7-(thiazol-5-yl)quinazolin-2-yl)piperidine-4-carboxamide] | > 10000 nM | 1380 nM | > 10000 nM | 47 nM | > 10000 nM | 1800 nM | > 10000 nM | 6.2% | 24.9% | 13.7% | 15.1% | – | –
13 | CN1CCN(c2cc(C(=O)Nc3ncc4ccc(-c5cnc(N)s5)cc4n3)ccn2)CC1 [Compound 1589, N-(7-(2-aminothiazol-5-yl)quinazolin-2-yl)-2-(4-methylpiperazin-1-yl)isonicotinamide] | 184 nM | 9990 nM | 2880 nM | 5 nM | 911 nM | 221 nM | 331 nM | – | – | – | – | – | –
14 | Nc1cncc(-c2ccc3cnc(NC(=O)c4ccc(OC5CCNCC5)cc4)nc3c2)c1 [Compound 1710, N-(7-(5-Aminopyridin-3-yl)quinazolin-2-yl)-4-(piperidin-4-yloxy)benzamide] | 3380 nM | 8040 nM | > 10000 nM | 2 nM | > 10000 nM | 5500 nM | > 10000 nM | 7.2% | 10.4% | – | 39.6% | – | –
15 | CN1CCN(c2cc(C(=O)Nc3ncc4ccc(-c5ccc(N)nc5)cc4n3)ccn2)CC1 [Compound 1713, N-(7-(6-Aminopyridin-3-yl)quinazolin-2-yl)-2-(4-methylpiperazin-1-yl)isonicotinamide] | 1140 nM | – | > 10000 nM | 27 nM | 5160 nM | – | 1560 nM | 5.7% | – | – | – | > 10000 nM | 1000 nM
16 | CN1CC=C(c2cc(C(=O)Nc3ncc4ccc(-c5cncc(NC(C)(C)C)n5)cc4n3)ccn2)CC1 [Compound 1773, N-(7-(6-(tert-Butylamino)pyrazin-2-yl)quinazolin-2-yl)-1′-methyl-1′,2′,3′,6′-tetrahydro-[2,4′-bipyridine]-4-carboxamide] | 88 nM | 995 nM | > 10000 nM | 1 nM | 163 nM | 5 nM | 95 nM | 40.7% | – | – | – | – | –
17 | O=C(Nc1ncc2ccc(-c3cncc(NC4CCNCC4)n3)cc2n1)C1CCOCC1 [Compound 1783, N-(7-(6-(Piperidin-4-ylamino)pyrazin-2-yl)quinazolin-2-yl)tetrahydro-2H-pyran-4-carboxamide] | > 10000 nM | 536 nM | > 10000 nM | 7 nM | > 10000 nM | 6800 nM | > 10000 nM | 6.1% | 53.7% | 14.4% | 38.8% | – | –
18 | CN1CCC(n2cc(C(=O)Nc3ncc4ccc(-c5cncc6[nH]ccc56)cc4n3)cn2)CC1 [Compound 1802, N-(7-(1H-Pyrrolo[2,3-c]pyridin-4-yl)quinazolin-2-yl)-1-(1-methylpiperidin-4-yl)-1H-pyrazole-4-carboxamide] | 1400 nM | > 10000 nM | > 10000 nM | 7 nM | > 10000 nM | 4400 nM | 1370 nM | 47.2% | 47.6% | – | – | – | –
19 | CC(C)n1cc(C(=O)Nc2ncc3ccc(-c4cncc(NC5CCN(C)CC5)n4)cc3n2)cn1 [Compound 1813, 1-Isopropyl-N-(7-(6-((1-methylpiperidin-4-yl)amino)pyrazin-2-yl)quinazolin-2-yl)-1H-pyrazole-4-carboxamide] | 396 nM | > 10000 nM | > 10000 nM | 2 nM | 5820 nM | 952 nM | 1000 nM | 42% | – | – | – | – | –
